Assay results published in article PMC6480711, “The Molecular and Structural Basis of O-methylation Reaction in Coumarin Biosynthesis in Peucedanum praeruptorum Dunn” (International Journal of Molecular Sciences, 2019).

Legend:
PpBMT = molecular target: T1, PpBMT (Kitagawia praeruptora, UniProt A0A166U5H3); experiment: HPLC product analysis; assay type: biochemical; details: co-substrate SAM; product bergapten
T1 construct: gene BMT; recombinant, construct as in the authors' previous report

COMT-S = molecular target: T2, COMT-S (Kitagawia praeruptora, UniProt A0A4P8DY91); experiment: isothermal titration calorimetry; assay type: binding; details: 25 mM Tris-HCl pH 8.0, 150 mM NaCl, 25 °C; cofactor analogue (product of SAM)
T2 construct: full-length CDS in pET28a, 6xHis tag, E. coli BL21 (DE3), Superdex 200
T2 sequence (A0A4P8DY91 1-364): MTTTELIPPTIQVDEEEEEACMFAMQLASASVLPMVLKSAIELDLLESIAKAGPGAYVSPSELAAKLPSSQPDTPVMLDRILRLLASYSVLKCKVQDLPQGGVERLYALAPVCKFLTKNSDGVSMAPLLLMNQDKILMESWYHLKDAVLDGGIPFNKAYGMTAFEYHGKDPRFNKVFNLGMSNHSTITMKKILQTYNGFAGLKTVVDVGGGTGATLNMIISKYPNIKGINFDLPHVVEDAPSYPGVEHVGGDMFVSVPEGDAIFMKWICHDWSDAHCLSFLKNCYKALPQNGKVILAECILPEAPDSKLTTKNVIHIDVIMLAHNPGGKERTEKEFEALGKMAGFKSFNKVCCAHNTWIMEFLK

T1 sequence (A0A166U5H3 whole entry): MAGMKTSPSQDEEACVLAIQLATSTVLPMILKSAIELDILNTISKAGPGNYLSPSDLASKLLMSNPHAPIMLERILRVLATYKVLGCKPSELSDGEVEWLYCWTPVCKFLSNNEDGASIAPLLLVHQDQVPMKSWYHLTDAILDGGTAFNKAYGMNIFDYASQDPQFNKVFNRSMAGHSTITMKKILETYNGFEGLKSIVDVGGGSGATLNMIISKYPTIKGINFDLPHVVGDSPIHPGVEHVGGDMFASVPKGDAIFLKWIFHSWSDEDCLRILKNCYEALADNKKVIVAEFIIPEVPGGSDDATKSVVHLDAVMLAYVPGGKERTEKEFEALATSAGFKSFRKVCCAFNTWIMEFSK

Compound | HPLC product analysis (PpBMT) | equilibrium dissociation constant (COMT-S)
O=c1ccc2c(O)c3ccoc3cc2o1 [bergaptol] | COMT-S could accept esculetin, bergaptol, and xanthotoxl as substrates, while BMT could only catalyze bergaptol | 
Nc1ncnc2c1ncn2[C@@H]1O[C@H](CSCC[C@H](N)C(=O)O)[C@@H](O)[C@H]1O [SAH] |  | The equilibrium dissociation constants of PpBMT/COMT–SAH interactions were determined by an MicroCal Auto-ITC200 calorimeter
